± gives the expanded uncertainty stated by the source.
Tests used:
[1] = 101.33 kPa, Liquid, Vibrating tube method
[2] = xn = mol fraction of the nth substance listed; conditions: 101 kPa, Liquid, Vibrating tube method, x2 = 0

CC(C)(C)O [2-methylpropan-2-ol] showed a mass density ([1]; 299.15 K) of 779.48 ± 0.27 kg/m3, a mass density ([1]; 303.15 K) of 775.39 ± 0.27 kg/m3 and a mass density ([1]; 308.15 K) of 770.15 ± 0.27 kg/m3. The mass density ([1]; 313.15 K) was 764.84 ± 0.27 kg/m3, the mass density ([1]; 318.15 K) was 759.46 ± 0.28 kg/m3 and the mass density ([1]; 323.15 K) was 753.94 ± 0.28 kg/m3. For the same molecule, the mass density ([1]; 333.15 K) was 742.7 ± 0.29 kg/m3 and the mass density ([1]; 348.15 K) was 725.06 ± 0.3 kg/m3.
For O [water] + CC(C)(C)O, the mass density ([2]; 274.15 K) was 999.899 ± 0.11 kg/m3, the mass density ([2]; 275.15 K) was 999.94 ± 0.11 kg/m3 and the mass density ([2]; 276.15 K) was 999.964 ± 0.11 kg/m3. It also gave a mass density ([2]; 277.15 K) of 999.972 ± 0.12 kg/m3, a mass density ([2]; 278.15 K) of 999.964 ± 0.11 kg/m3 and a mass density ([2]; 279.15 K) of 999.94 ± 0.11 kg/m3. For the same molecule, the mass density ([2]; 280.15 K) was 999.901 ± 0.11 kg/m3, the mass density ([2]; 281.15 K) was 999.848 ± 0.11 kg/m3 and the mass density ([2]; 282.15 K) was 999.781 ± 0.11 kg/m3. It also gave a mass density ([2]; 283.15 K) of 999.699 ± 0.11 kg/m3, a mass density ([2]; 323.15 K) of 988.03 ± 0.11 kg/m3 and a mass density ([2]; 333.15 K) of 983.191 ± 0.11 kg/m3. For the same molecule, the mass density ([2]; 348.15 K) was 974.838 ± 0.11 kg/m3.

— the NIST ThermoML archive (doi:10.1016/j.jct.2010.10.018)
